Source: patent US6642249B2, “Immunomodulating compounds” (Active Biotech AB, priority 2001, dated 2003)
pIC50: −log10 of the molar value.

Each molecule was assayed against T1, CD28-CD80 interactions (Homo sapiens, UniProt P33681) (assay: Time resolved fluorescence competition assay: CD28-CD80 interactions). Settings: inhibition of CD28-mFc (5 nM) / CD80FabC215 (10 nM) interaction; representative results.
T1 sequence (P33681 35-242 limits assumed): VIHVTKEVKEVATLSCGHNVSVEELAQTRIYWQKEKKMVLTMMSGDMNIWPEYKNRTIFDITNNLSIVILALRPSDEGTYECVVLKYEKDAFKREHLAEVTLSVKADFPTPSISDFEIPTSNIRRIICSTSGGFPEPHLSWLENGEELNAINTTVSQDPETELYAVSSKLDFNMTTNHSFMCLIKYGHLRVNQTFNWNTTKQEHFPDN
Type: binding
Protocol: Time resolved fluorescence competition assay protocol: CD28-CD80 interactions.
50 mM Tris-HCl, 150 mM NaCl, 0.05% Tween 20, pH 7.8, containing 0.1% BSA (w/v), added prior to use.
The substances to be tested for inhibitory effects were serially diluted from stock concentrations of 20 mM (DMSO) in assay buffer to preparation concentrations of 200, 100, 50 and 25 μM. The final concentration in the wells was 100, 50, 25 and 12.5 μM, respectively. The maximum final DMSO concentration tolerated in the assay was 0.5%. Where appropriate, the dilution series was adjusted and extended to measure the IC50.
CTLA4-hIg(Fc) was diluted to working concentrations of 20 nM and 2 nM, resulting in final concentrations of 10 nM and 1 nM in the well. At these concentrations (10 nM and 1 nM) approximately 90% and 30% inhibition levels were observed.
Preparation of Reagent Mixture
To a tube containing 1.1 ml assay buffer, the following reagents were added:
900 μl of the above reagent mixture was transferred to a new tube. CD80FabC215 was added at a preparation concentration of 20 nM, (i.e. 4.3 μl from 0.4 mg/ml stock). The final concentration in the well was 10 nM.
To the remaining 200 μl reagent mixture C215Fab was added as control for non-specific binding (NSB). 0.5 μl from a 0.36 mg/ml stock gave a preparation concentration of 20 nM and a final concentration in the well of 10 nM.
To a black, half area, 96-well microtiter plate, the C215Fab containing reagent mixture was transferred to column 12, row E-H (4 wells), 10 μl/well with a single channel electronic pipette. 10 μl/well of the CD80FabC215 containing reagent mixture was transferred with a single channel electronic pipette to all other wells on the plate
B0: Assay buffer, 10 μl/well was pipetted to the CD80FabC215 containing wells in column 12, row A-D (4 wells).
NSB: Assay buffer, 10 μl/well was pipetted to the C215Fab containing wells in column 12, row E-H (4 wells).
CTLA4-hIg(Fc), 10 μl/well of 20 and 2 nM (final conc 10 and 1 nM) was pipetted in duplicate into well 11 E-F and 11 G-H.
Sample dilution series: 10 μl/well in duplicate to the remaining wells.
The plate was covered with a plastic lid and incubated in the dark: Initially for 1 h on a shaker platform at room temperature (RTS), stationary at +4° C. overnight, and finally 1 h RTS before reading.
The plate was measured on a Victor 1420 Multilabel Counter using the LANCE protocol (#2) measuring emission at dual wavelengths, from both APC (665 nm) and Europium (615 nm). First measurement: Excitation 340 nm, emission 665 nm, delay 50 μs, window time 200 μs. Second measurement: Excitation 340 nm, emission 615 nm, delay 50 μs, window time 200 μs.
The fluorescence signal ratio 1000* 665 nm/615 nm, from which the percentage inhibition was calculated, was determined. A logit b plot (Logit b=LN (% Bound/(100% −% Bound, plotted against Log conc) was performed from which IC50 was measured.

Compound | pIC50
O=C(O)c1ccc(-n2nc3c4ccccc4[nH]cc-3c2=O)cc1Cl [2-Chloro-4-(3-oxo-3,5-dihydro-pyrazolo[4,3-c]quinolin-2-yl)-benzoic Acid] | 6.57
O=C(O)CNC(=O)c1ccc(-n2nc3c4ccccc4[nH]cc-3c2=O)cc1 [2-[4-(3-Oxo-3,5-dihydro-pyrazolo[4,3-c]quinolin-2-yl)-benzoylamino]-2-acetic Acid] | 5.41
O=C(O)c1cccc(-n2nc3c4ccccc4[nH]cc-3c2=O)c1 [3-(3-Oxo-3,5-dihydro-pyrazolo[4,3-c]quinolin-2-yl)-benzoic Acid] | 6.06

Second part, the molecule after the results:

pIC50 | Compound
4.87 | O=C(O)c1ccc(-n2nc3c4ccccc4scc-3c2=O)cc1 [4-(3-Oxo-3H-thiochromeno[4,3-c]pyrazol-2-yl)benzoic Acid]
6.32 | O=C(O)c1ccc(-n2nc3c4ccccc4[nH]cc-3c2=O)cc1 [4-(3-oxo-3,5-dihydro-pyrazolo[4,3-c]quinolin-2-yl)-benzoic Acid]
6.22 | O=C(O)CCC(=O)Nc1ccc(-n2nc3c4ccccc4[nH]cc-3c2=O)cc1 [N-[4-(3-Oxo-3,5-dihydro-pyrazolo[4,3-c]quinolin-2-yl)-phenyl]-succinamic Acid]
5.80 | O=C(O)CCc1ccc(-n2nc3c4ccccc4[nH]cc-3c2=O)cc1 [[4-(3-Oxo-3,5-dihydro-pyrazolo[4,3-c]quinolin-2-yl)-phenyl]-propionic Acid]
